Laboratory results as given in patent US8211883B2, “Topical delivery of phthalocyanines” (priority 2004, dated 2012).

Assays:
[1] = test system: Mouse lymphoma L5178y-R cells; experiment: Clonogenic cell survival of PDT-treated LY-R cells; assay type: cell-based; conditions: 0.5 μM; for activity relative to PcXII: from LD50/LD90 fluences
Description: Mouse lymphoma L5178y-R (hereinafter also referred to as “LY-R”) cells were grown in suspension culture as described in Ramakrishnan N., Oleinick, N. L. Clay, M. E., Homg, M. F., Antunez, A. R., and Evans H. H., Photochem. Photobiol. 50, 373-378, 1989 and Agarwal, M. L., Clay, M. E., Harvey, E. J., Evans, H. H., Antunez, A. R., and Oleinick, N. L., Cancer Res., 51, 5993-5996, 1991.
The cells were used while in exponential growth. Stock solutions of either 0.5 or 1 mM of PcIV, PcXII, PcX, PcXVIII were prepared in dimethylformamide unless otherwise indicated and added to the 10 mL medium at a rate of 1 μL per mL. After allowing 18 hours for uptake of the phthalocyanine into the cells, the flasks containing the cultures were placed on a glass exposure tray above a 500-W tungsten-halogen lamp. The exposure tray was fitted with a 600-nm high-pass filter. Flasks were exposed to various fluences of red light (up to 30 kJ/m^2) at a fluence rate of approximately 74 W/m^2). After irradiation, the cells were collected by centrifugation.
For measurement of clonogenic cell survival, aliquots were plated in medium containing soft agar as described in Ramakrishnan N., Oleinick, N. L. Clay, M. E., Homg, M. F., Antunez, A. R., and Evans H. H., Photochem. Photobiol. 50, 373-378, 1989. The aliquots were plated in sufficient numbers to produce 50-200 colonies. The dishes were kept in an incubator at 37° C. in an atmosphere of 5% CO2 and 95% air for 10-14 days to allow viable cells to form colonies. Colonies were counted by eye. Controls treated with the phthalocyanine alone had plating efficiencies of about […]. The plating efficiencies of the treated cells are normalized to the plating efficiencies of control cells in each experiment. For measurement of the induction of apoptosis, DNA was isolated from the treated and control cells 2 hours after photodynamic therapy, subjected to electrophoresis on 1.5% agarose, stained with ethidium bromide, and visualized by UV transillumination, as described in Agarwal et al. The results are shown in Tables 4, 5 and 6 and in FIG. 3.

[2] = test system: RIF-1 (radiation-induced fibrosarcoma) tumors; experiment: PDT of RIF-1 implanted tumors; assay type: in vivo, C3H/HeN mice; parameters: key to Tumor Responses at 24 hours: complete: no evidence of any tumor mass in any animal; only the scar from the photodynamic therapy was evident.; near complete: evidence of any tumor mass in four or five animals; only some tumor mass in one or two animals.; substantial: a significant tumor shrinkage occurred in all animals. In some animals the tumor response was complete, yet in others the response was not complete.; moderate: some tumor shrinkage was evident in some animals. In animals with some tumor shrinkage, scar formation was evident.; slight: some tumor decrease occurred in one or two mice; conditions: for Tumor Responses at 24 hours / Doubling Time of Initial Tumor Volume after PDT: 1 mg/kg in corn oil, 675 nm; for Tumor Responses at 24 hours: 135 J/cm^2, light 24 h after dosing; for Doubling Time of Initial Tumor Volume after PDT: 135 J/cm^2, controls 4 days

## CN(C)CCC[Si](C)(C)O[Si]1(O)n2c3c4ccccc4c2N=C2N=C(N=c4c5ccccc5c(n41)=NC1=NC(=N3)c3ccccc31)c1ccccc12 (stereo not drawn) [Compound IV, HOSiPcOSi(CH3)2(CH2)3N(CH3)2]
[1]
  Ld50 (fluence that reduces cell survival to 50%): 1.38 kJ/m^2
  Ld90 (fluence that reduces cell survival to 10%): 2.15 kJ/m^2
  activity relative to PcXII: about 80%
[1]; light dose 0 kJ/m^2
  normalized plating efficiency, AVG.: 100
[1]; light dose 1 kJ/m^2
  normalized plating efficiency, AVG.: 80.9
[1]; light dose 2 kJ/m^2
  normalized plating efficiency, AVG.: 19.7
[1]; light dose 2.5 kJ/m^2
  normalized plating efficiency, AVG.: 0.82
[1]; light dose 3 kJ/m^2
  normalized plating efficiency, AVG.: 0.16
[1]; light dose 5 kJ/m^2
  normalized plating efficiency, AVG.: 0.014
[2]
  Tumor Responses at 24 hours: near complete
  Doubling Time of Initial Tumor Volume after PDT: 16 days
[2]; RIF-1 tumors after PDT
  Histological examination of treated tumors: presence of apoptotic bodies in the tumor

## CN(C)CCC[Si](C)(C)O[Si]1(O[Si](C)(C)CCCN(C)C)n2c3c4ccccc4c2N=C2N=C(N=c4c5ccccc5c(n41)=NC1=NC(=N3)c3ccccc31)c1ccccc12 [Compound XII, SiPc[OSi(CH3)2(CH2)3N(CH3)2]2]
[1]
  Ld50 (fluence that reduces cell survival to 50%): 1.11 kJ/m^2
  Ld90 (fluence that reduces cell survival to 10%): 1.70 kJ/m^2
[1]; light dose 0 kJ/m^2
  normalized plating efficiency, AVG.: 100
[1]; light dose 1 kJ/m^2
  normalized plating efficiency, AVG.: 82.2
[1]; light dose 2 kJ/m^2
  normalized plating efficiency, AVG.: 5.23
[1]; light dose 2.5 kJ/m^2
  normalized plating efficiency, AVG.: 0.90
[1]; light dose 3 kJ/m^2
  normalized plating efficiency, AVG.: 0.15
[1]; light dose 4 kJ/m^2
  normalized plating efficiency, AVG.: 0.014
[1]; light dose 5 kJ/m^2
  normalized plating efficiency, AVG.: 0.0027
[2]
  Tumor Responses at 24 hours: complete
  Doubling Time of Initial Tumor Volume after PDT: 20 days

## CCN(CCC[Si](C)(C)O[Si]1(O[Si](C)(C)CCCN(CC)CCN(C)C)n2c3c4ccccc4c2N=C2N=C(N=c4c5ccccc5c(n41)=NC1=NC(=N3)c3ccccc31)c1ccccc12)CCN(C)C [Compound XVIII, SiPc[OSi(CH3)2(CH2)3N(CH2CH3)(CH2)2N(CH3)2]2]
[1]
  Ld50 (fluence that reduces cell survival to 50%): 5.00 kJ/m^2
  Ld90 (fluence that reduces cell survival to 10%): 7.81 kJ/m^2
  activity relative to PcXII: 22%
[1]; light dose 0 kJ/m^2
  normalized plating efficiency, AVG.: 100
[1]; light dose 2 kJ/m^2
  normalized plating efficiency, AVG.: 81.8
[1]; light dose 3 kJ/m^2
  normalized plating efficiency, AVG.: 73.6
[1]; light dose 4 kJ/m^2
  normalized plating efficiency, AVG.: 64.0
[1]; light dose 5 kJ/m^2
  normalized plating efficiency, AVG.: 52.1
[1]; light dose 6 kJ/m^2
  normalized plating efficiency, AVG.: 33.8
[1]; light dose 8 kJ/m^2
  normalized plating efficiency, AVG.: 9.13
[1]; light dose 10 kJ/m^2
  normalized plating efficiency, AVG.: 3.0
[2]
  Tumor Responses at 24 hours: near complete
  Doubling Time of Initial Tumor Volume after PDT: 12 days
